Data from patent US10835500B2, “Medicament for accelerated wound healing” (Symrise AG, priority 2014, dated 2020).

How the values were obtained:
Format in all cases: cell-based, human
[1] = tested on: cAMP content of HaCaT cells; test: cAMP assay (cAMP-Glo) in HaCaT cells
Protocol: In order to identify the calcium channel through which calcium ions flow from the outside into the cytosol of the skin cells, the CNG channel blocker L-cis-diltiazem was used. […] An additional cAMP assay was conducted in order to verify the data of pharmacological characterization by means of the calcium imaging technique. For this purpose, HaCaT cells with various Sandalore® concentrations were stimulated, and cAMP content was determined.
Pharmacological characterization of Sandalore®-induced signal cascade in human keratinocytes. A)-D). Shown are representative calcium imaging traces of primary keratinocytes in the presence of a blocker (blue). The horizontal bars correspond to the application times. 100 μM of ATP was used at the end of each measurement as a positive control stimulus. A) Measurement with calcium-free extracellular solution (+10 mM EGTA). B) Measurement with the adenylyl cyclase blocker SQ-22536 (100 μM). C) Use of the phospholipase-C blocker U-73122 (10 μM). 100 μM of histamine was taken as a positive control. D) Measurement with the CNG channel blocker L-cis-diltiazem (150 μM). E) Overview of pharmacological measurement of HaCaT cells and primary keratinocytes (Kera). […] Significance was determined between HaCaT cells stimulated with Sandalore® and stimulated with an equivalent volume of DMSO (0.2%). […]

primary keratinocytes = test: Morphology and propidium iodide staining after 5-day stimulation, primary keratinocytes; conditions: 5-day incubation with 500 μM
Protocol: In order to obtain initial data on possible physiological effects caused by the activation of OR2AT4, HaCaT cells and primary keratinocytes were stimulated for five days with Sandalore®. […] A lethal effect of the odorant can therefore be ruled out (FIG. 16a).
Effect of Sandalore® long-term stimulation on morphology, growth, and migration processes in keratinocytes. A) Phase contrast image and PI stains of HaCaT cells and primary keratinocytes after stimulation with Sandalore® (500 μM) or 0.1% DMSO (control) for five days. On positive PI staining, the cell nuclei are stained red. Scale: 100 μm. B) Evaluation of the proliferation assay carried out with the CyQuant Cell Proliferation Kit on HaCaT cells after 5-day stimulation with 500 μM of Sandalore® or 0.1% DMSO (control). For the RNA interference experiments, the cells were transfected with siRNA or scRNA on the day before Sandalore® stimulation. Shown is the mean cell count including standard error relative to untreated cells. Mann-Whitney U test; n=3 experiments. *: p<0.05; **: p<0.01. S: Sandalore. C) Agarose assay for determination of migration of HaCaT cells. Top: Transmitted light images of HaCaT cells that have migrated in the direction of Sandalore® (500 μM) or 0.1% DMSO. […] The longest path traversed by the cells and the overgrown area were measured and compared to the control (0.1% DMSO). […]

p38 MAPK = test: Western Blot, phosphorylation of p38 MAPK in HaCaT cells; conditions: 500 μM
Protocol: In the following, an investigation was to be conducted to determine whether a MAPK signalling pathway is activated by Sandalore® stimulation in skin cells, and if so, which pathway is involved. For detection, HaCaT cells were stimulated for 0-30 min with 500 μM of Sandalore®, and the proteins were then isolated and used in Western Blot assays.
In order to reveal a possible interaction of the two MAPK signalling pathways, ERK1/2 phosphorylation in the presence of the p38 MAPK inhibitor SB203580 and p38 MAPK phosphorylation in the presence of the ERK1/2 MAPK inhibitor U0126 were investigated.
A) Western Blot for investigating the phosphorylation of the MAP kinases in HaCaT cells stimulated for 0, 5, 15 and 30 min with Sandalore®(500 μM). […] ERK1/2: 42/44 kDa; p38: 43 kDa; JNK/SAPK: 46/54 kDA; ▪-tubulin: 52 kDa. B) Quantitative evaluation of p38 and ERK1/2 phosphorylation of HaCaT cells stimulated for 30 min with Sandalore®(500 μM) or additionally with the p38 inhibitor 5B203580 (10 μM) or ERK1/2 inhibitor U0126 (10 μM). For evaluation, the ratio of the phosphorylated (p) and unphosphorylated proteins was established and compared to that of untreated cells. Mean values including standard error. Mann-Whitney U test. *: p<0.05; ***: p<0.001. In C), the inhibitors of the respective other MAP kinase were used, and phosphorylation was compared to the cells stimulated with Sandalore® (500 μM) alone. Mean values including standard error. Mann-Whitney U test. *: p<0.05. The Western Blot analyses were carried out with three different protein isolations.

Structure (SMILES): CC1=CCC(CCC(C)C(C)O)C1(C)C (centres unmarked) [Sandalore®]
- cAMP content ([1]; 10-minute stimulation with various concentrations): dose-dependent cAMP increase
- EC50 ([1]; 10-minute stimulation, 1 μM-10,000 μM, read-out: EC50 value of cAMP increase): 197 µM
- morphological changes or PI staining (lethal effect) (primary keratinocytes): neither the HaCaT cells nor the keratinocytes showed morphological changes or PI staining
- phosphorylation of p38 MAPK, quantification (p38 MAPK; 30-minute stimulation): significant increase
- phosphorylation of p38 MAPK (p38 MAPK; within 5-30 min): increased phosphorylation
